From patent US20230338378A1, “Methods of Administering Myosin Inhibitors” (MYOKARDIA, INC., priority 2022, published 2023)
Like-named read-outs stand apart in the source and are kept apart here.

Legend:
CYP3A4 = CYP3A4 (Homo sapiens, UniProt P08684); assay: Concomitant use with moderate CYP3A4 inhibitor verapamil; assay type: in vivo; set-up: Mavacamten is hepatically metabolized predominantly via CYP2C19 (74%), CYP3A4 (18%) and CYP2C9 (8%); from tissue; host or cells: liver of human subjects in vivo, or a Simcyp virtual population; settings: mavacamten 25 mg with verapamil sustained release 240 mg; CYP2C19 IMs and NMs
CYP3A4, sequence (P08684 whole entry): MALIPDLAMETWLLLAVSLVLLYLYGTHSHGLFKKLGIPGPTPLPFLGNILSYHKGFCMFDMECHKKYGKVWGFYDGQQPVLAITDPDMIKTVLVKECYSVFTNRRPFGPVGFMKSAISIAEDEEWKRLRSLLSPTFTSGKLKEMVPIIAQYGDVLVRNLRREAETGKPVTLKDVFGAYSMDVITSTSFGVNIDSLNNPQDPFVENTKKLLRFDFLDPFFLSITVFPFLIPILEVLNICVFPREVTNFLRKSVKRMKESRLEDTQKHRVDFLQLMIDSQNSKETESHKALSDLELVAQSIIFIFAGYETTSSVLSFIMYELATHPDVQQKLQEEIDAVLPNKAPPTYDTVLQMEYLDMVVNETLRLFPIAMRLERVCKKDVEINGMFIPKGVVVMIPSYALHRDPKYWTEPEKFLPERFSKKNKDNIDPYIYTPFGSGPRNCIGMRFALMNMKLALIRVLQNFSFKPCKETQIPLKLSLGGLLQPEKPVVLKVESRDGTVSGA

pregnant rats = assay: Embryo-fetal development study in pregnant rats; assay type: in vivo, rat
Source text: Plasma exposure (based on area under the concentration-time curve or AUC) at the no-effect dose for embryo-fetal development in rats is 0.3 times the exposure in humans at the MRHD.

[1] = Clinical pharmacokinetics of mavacamten; assay type: in vivo, human; settings: for half-life: plasma, read-out: terminal half-life (converted)
lymphocyte = assay: Human in vitro lymphocyte clastogenicity assay; assay type: cell-based
CYP2B6 = assay: In vitro CYP induction; assay type: in vitro ADME; settings: In Vitro Studies

## CC(C)n1c(=O)cc(N[C@@H](C)c2ccccc2)[nH]c1=O [mavacamten, (S)-3-Isopropyl-6-((1-phenylethyl)amino)pyrimidine-2,4(1H,3H)-dione]
CYP3A4
  mavacamten AUCinf increase: 15%
  mavacamten Cmax increase: 52%
Pregnant rats; pregnant rats, oral, period of organogenesis, high dose group (1.5 mg/kg/day)
  embryo-fetal findings: increases in post-implantation loss, decreases in mean fetal body weight, reductions in fetal ossification of bones, and fetal malformations (visceral and skeletal) were observed
Pregnant rats; rats
  Plasma exposure (AUC) at the no-effect dose for embryo-fetal development vs exposure in humans at the MRHD: 0.3 times
[1]; CYP2C19 NMs
  accumulation ratio for AUC: about 7 fold
  accumulation ratio for Cmax: about 2 fold
[1]; Effect of Food
  pharmacokinetics with a high fat meal: No clinically significant differences
[1]; Specific Populations
  pharmacokinetics by age (18-82 years), sex, race, ethnicity, or mild to moderate renal impairment: No clinically significant differences
[1]; human, in vivo, oral, read-out: time to maximum concentration (Tmax)
  Tmax: 1 h
[1]; human, in vivo, po, read-out: estimated oral bioavailability
  bioavailability: ≥ 85%
[1]; human, oral, CYP2C19 normal metabolizers (NMs)
  half-life: 144 to 216 h
[1]; human, oral, CYP2C19 poor metabolizers (PMs)
  half-life: 552 h
[1]; multiple once-daily doses of 1 mg to 15 mg
  exposure vs dose: increases generally dose proportionally
[1]; same dose level
  higher exposures in patients with HCM compared to healthy subjects: 170%
[1]; steady-state, once daily dosing
  peak-to-trough plasma concentration ratio: approximately 1.5
lymphocyte
  genotoxicity: not genotoxic
CYP2B6
  induction of CYP2B6: inducer
